Laboratory results published in ChEMBL document CHEMBL1649160, “ST-246 antiviral efficacy in a nonhuman primate monkeypox model: determination of the minimal effective dose and human dose justification” (Antimicrob Agents Chemother, 2009).

Tests used:
[1] = AUC (0 to 24 hrs) in monkeypox virus infected cynomolgus monkey at 10 mg/kg, po qd for 14 days administered under fed condition measured after 7 days; type: ADME, organism-based, Macaca fascicularis; design: time < 24 hr, dose 10 mg/kg, route oral; conditions: plasma
[2] = Cmax in monkeypox virus infected cynomolgus monkey at 10 mg/kg, po administered as single dose under fed condition measured after 1 day; type: ADME, organism-based, Macaca fascicularis; design: dose 10 mg/kg, route oral; conditions: in vivo
[3] = Cmax in monkeypox virus infected cynomolgus monkey at 10 mg/kg, po qd for 14 days administered under fed condition measured after 7 days; type: ADME, organism-based, Macaca fascicularis; design: dose 10 mg/kg, route oral; conditions: in vivo
[4] = Cmax in human at 13.3 mg/kg, po qd for 21 days administered under fed condition measured after 21 days; type: ADME, organism-based; design: dose 13.3 mg/kg, route oral; conditions: in vivo
[5] = AUC (0 to 24 hrs) in monkeypox virus infected cynomolgus monkey at 30 mg/kg, po qd for 14 days administered under fed condition measured after 7 days; type: ADME, organism-based, Macaca fascicularis; design: time < 24 hr, dose 30 mg/kg, route oral; conditions: plasma
[6] = AUC (0 to 24 hrs) in human at 4.2 mg/kg, po administered as single dose under fed condition measured after 1 day; type: ADME, organism-based; design: time < 24 hr, dose 4.2 mg/kg, route oral; conditions: plasma
[7] = Cmax in human at 13.3 mg/kg, po qd qd for 6 days administered under fed condition measured after 6 days; type: ADME, organism-based; design: dose 13.3 mg/kg, route oral; conditions: in vivo
[8] = Cmax in monkeypox virus infected cynomolgus monkey at 30 mg/kg, po qd for 14 days administered under fed condition measured after 14 days; type: ADME, organism-based, Macaca fascicularis; design: dose 30 mg/kg, route oral; conditions: in vivo
[9] = Cmax in human at 6.7 mg/kg, po qd for 21 days administered under fed condition measured after 21 days; type: ADME, organism-based; design: dose 6.7 mg/kg, route oral; conditions: in vivo
[10] = AUC (0 to 24 hrs) in human at 13.3 mg/kg, po qd for 6 days administered under fed condition measured after 6 days; type: ADME, organism-based; design: time < 24 hr, dose 13.3 mg/kg, route oral; conditions: plasma
[11] = Cmax in human at 6.7 mg/kg, po qd for 6 days administered under fed condition measured after 6 days; type: ADME, organism-based; design: dose 6.7 mg/kg, route oral; conditions: in vivo
[12] = Cmax in monkeypox virus infected cynomolgus monkey at 10 mg/kg, po qd for 14 days administered under fed condition measured after 14 days; type: ADME, organism-based, Macaca fascicularis; design: dose 10 mg/kg, route oral; conditions: in vivo
[13] = Cmax in monkeypox virus infected cynomolgus monkey at 30 mg/kg, po administered as single dose under fed condition measured after 1 day; type: ADME, organism-based, Macaca fascicularis; design: dose 30 mg/kg, route oral; conditions: in vivo
[14] = Cmax in monkeypox virus infected cynomolgus monkey at 30 mg/kg, po qd for 14 days administered under fed condition measured after 7 days; type: ADME, organism-based, Macaca fascicularis; design: dose 30 mg/kg, route oral; conditions: in vivo
[15] = Cmax in human at 4.2 mg/kg, po qd for 6 days administered under fed condition measured after 6 days; type: ADME, organism-based; design: dose 4.2 mg/kg, route oral; conditions: in vivo
[16] = AUC (0 to 24 hrs) in human at 4.2 mg/kg, po qd for 21 days administered under fed condition measured after 21 days; type: ADME, organism-based; design: time < 24 hr, dose 4.2 mg/kg, route oral; conditions: plasma
[17] = AUC (0 to 24 hrs) in human at 6.7 mg/kg, po qd for 21 days administered under fed condition measured after 21 days; type: ADME, organism-based; design: time < 24 hr, dose 6.7 mg/kg, route oral; conditions: plasma
[18] = AUC (0 to 24 hrs) in monkeypox virus infected cynomolgus monkey at 20 mg/kg, po administered as single dose under fed condition measured after 1 day; type: ADME, organism-based, Macaca fascicularis; design: time < 24 hr, dose 20 mg/kg, route oral; conditions: plasma
[19] = AUC (0 to 24 hrs) in monkeypox virus infected cynomolgus monkey at 30 mg/kg, po administered as single dose under fed condition measured after 1 day; type: ADME, organism-based, Macaca fascicularis; design: time < 24 hr, dose 30 mg/kg, route oral; conditions: plasma
[20] = AUC (0 to 24 hrs) in monkeypox virus infected cynomolgus monkey at 10 mg/kg, po qd for 14 days administered under fed condition measured after 14 days; type: ADME, organism-based, Macaca fascicularis; design: time < 24 hr, dose 10 mg/kg, route oral; conditions: plasma
[21] = AUC (0 to 24 hrs) in human at 4.2 mg/kg, po qd for 6 days administered under fed condition measured after 6 days; type: ADME, organism-based; design: time < 24 hr, dose 4.2 mg/kg, route oral; conditions: plasma
[22] = AUC (0 to 24 hrs) in human at 13.3 mg/kg, po administered as single dose under fed condition measured after 1 day; type: ADME, organism-based; design: time < 24 hr, dose 13.3 mg/kg, route oral; conditions: plasma
[23] = AUC (0 to 24 hrs) in human at 13.3 mg/kg, po qd for 21 days administered under fed condition measured after 21 days; type: ADME, organism-based; design: time < 24 hr, dose 13.3 mg/kg, route oral; conditions: plasma
[24] = Cmax in human at 13.3 mg/kg, po administered as single dose under fed condition measured after 1 day; type: ADME, organism-based; design: dose 13.3 mg/kg, route oral; conditions: in vivo
[25] = AUC (0 to 24 hrs) in monkeypox virus infected cynomolgus monkey at 30 mg/kg, po qd for 14 days administered under fed condition measured after 14 days; type: ADME, organism-based, Macaca fascicularis; design: time < 24 hr, dose 30 mg/kg, route oral; conditions: plasma
[26] = AUC (0 to 24 hrs) in human at 6.7 mg/kg, po qd for 6 days administered under fed condition measured after 6 days; type: ADME, organism-based; design: time < 24 hr, dose 6.7 mg/kg, route oral; conditions: plasma
[27] = Cmax in human at 4.2 mg/kg, po qd for 21 days administered under fed condition measured after 21 days; type: ADME, organism-based; design: dose 4.2 mg/kg, route oral; conditions: in vivo
[28] = Cmax in human at 6.7 mg/kg, po administered as single dose under fed condition measured after 1 day; type: ADME, organism-based; design: dose 6.7 mg/kg, route oral; conditions: in vivo
[29] = Cmax in monkeypox virus infected cynomolgus monkey at 20 mg/kg, po administered as single dose under fed condition measured after 1 day; type: ADME, organism-based, Macaca fascicularis; design: dose 20 mg/kg, route oral; conditions: in vivo
[30] = AUC (0 to 24 hrs) in monkeypox virus infected cynomolgus monkey at 10 mg/kg, po administered as single dose under fed condition measured after 1 day; type: ADME, organism-based, Macaca fascicularis; design: time < 24 hr, dose 10 mg/kg, route oral; conditions: plasma
[31] = AUC (0 to 24 hrs) in human at 6.7 mg/kg, po administered as single dose under fed condition measured after 1 day; type: ADME, organism-based; design: time < 24 hr, dose 6.7 mg/kg, route oral; conditions: plasma
[32] = Cmax in human at 4.2 mg/kg, po administered as single dose under fed condition measured after 1 day; type: ADME, organism-based; design: dose 4.2 mg/kg, route oral; conditions: in vivo

## O=C(NN1C(=O)[C@@H]2[C@@H]3C=C[C@@H]([C@H]4C[C@@H]34)[C@@H]2C1=O)c1ccc(C(F)(F)F)cc1 [TECOVIRIMAT]
[1]
  AUC at 24 h: 12600 ng·h/mL
[2]
  Cmax: 1010 ng/mL
[3]
  Cmax: 1020 ng/mL
[4]
  Cmax: 2440 ng/mL
[5]
  AUC at 24 h: 20700 ng·h/mL
[6]
  AUC(0-t) at 24 h: 9100 ng·h/mL
[7]
  Cmax: 2340 ng/mL
[8]
  Cmax: 1190 ng/mL
[9]
  Cmax: 1460 ng/mL
[10]
  AUC at 24 h: 23400 ng·h/mL
[11]
  Cmax: 1300 ng/mL
[12]
  Cmax: 1080 ng/mL
[13]
  Cmax: 1150 ng/mL
[14]
  Cmax: 1510 ng/mL
[15]
  Cmax: 1210 ng/mL
[16]
  AUC at 24 h: 10100 ng·h/mL
[17]
  AUC at 24 h: 16200 ng·h/mL
[18]
  AUC(0-t) at 24 h: 18400 ng·h/mL
[19]
  AUC(0-t) at 24 h: 18100 ng·h/mL
[20]
  AUC at 24 h: 13500 ng·h/mL
[21]
  AUC at 24 h: 11900 ng·h/mL
[22]
  AUC(0-t) at 24 h: 21000 ng·h/mL
[23]
  AUC at 24 h: 22700 ng·h/mL
[24]
  Cmax: 2280 ng/mL
[25]
  AUC at 24 h: 15800 ng·h/mL
[26]
  AUC at 24 h: 15400 ng·h/mL
[27]
  Cmax: 1100 ng/mL
[28]
  Cmax: 1390 ng/mL
[29]
  Cmax: 1260 ng/mL
[30]
  AUC(0-t) at 24 h: 13700 ng·h/mL
[31]
  AUC(0-t) at 24 h: 13100 ng·h/mL
[32]
  Cmax: 985 ng/mL
